A short description of data set [1]: Primary particle size distribution by laser diffraction after break up of spherical agglomerates. Type of data set: physicochemical. The settings on record: primary particles; for PSD d (0.1), Mean result / PSD d (0.5), Mean result: mean of 10 acquisitions. How it is done: The primary particle size distribution results are produced by means of a Malvern 2000 laser diffraction equipment by the analysis of the primary particles in suspension.
The particle size distribution laser diffraction measures were performed using a Malvern Mastersizer 2000 equipped with a Hydro 2000S cell for the wet suspension of the Timapiprant primary particles. The spherical agglomerates obtained according to the Examples 3 and 5, were dispersed in water by means of 10 minutes sonication and then added to the cell, previously filled with water, until an obscuration within 5-10% was obtained. The stirring rate was set at 1500 rpm and each of the suspensions produced were analysed by 10 acquisitions, the results are reported in Tables 1 and 2.

A short description of data set [2]: Specific surface area (SSA) by BET nitrogen adsorption. Type of data set: physicochemical. The method, then: The specific surface areas (SSA) of spherical agglomerates of timapiprant obtained according to Examples 3, 5,7 and the micronized timapiprant were measured was determined by BET nitrogen adsorption using the TriStar of Micromeritics apparatus according to following parameters: • Isotherm, Adsorbing/Desorbing Run: 0 to 1 p/p0 • Vials: ⅜ Inch, Degasing Pre-analysis: 2 hours at 40° C., Nitrogen as adsorbate • Preparation: Evacuation Rate 10 mmHg/s; Unrestricted evacuation from 5 mmHg • Vacuum setpoint: 10 mmHg, Evacuation time: 1 hour • Leak Test Duration: 120 s, Outgas Test Duration: 180 s • Measure p0 at intervals during the analysis, Enter the analysis bath temperature: […]77 kelvin • Equilibration Interval: 5 s; Minimum Equilibration Delay at p/p0>=0.995 per 600 s.

Data set [3] can be described thus: Flowability of blend material with excipients. The settings on record: for Flowability (s/100 g): blend material of API with excipients of Table 3; for Flow properties of blend: blend material of API with excipients. Type of data set: physicochemical. How it is done: The spherical agglomerates of timapiprant or the micronized timapiprant, together with the microcrystalline cellulose, the croscarmellose sodium, the poloxamer, the sodium lauryl sulphate and the colloidal silicon dioxide in the above amounts, are sieved in a sieve of 1.2 mm. The lactose monohydrate is then added, and the resulting mixture is blended in a free fall blender for at least 15 minutes. The magnesium stearate is added to the obtained mixture which is further blended in the free fall blender for additional 3 minutes.

The target in data set [4] is T1, prostaglandin D2 receptor (CRTH2) (Homo sapiens, UniProt Q9Y5Y4).
T1 sequence (Q9Y5Y4 1-395): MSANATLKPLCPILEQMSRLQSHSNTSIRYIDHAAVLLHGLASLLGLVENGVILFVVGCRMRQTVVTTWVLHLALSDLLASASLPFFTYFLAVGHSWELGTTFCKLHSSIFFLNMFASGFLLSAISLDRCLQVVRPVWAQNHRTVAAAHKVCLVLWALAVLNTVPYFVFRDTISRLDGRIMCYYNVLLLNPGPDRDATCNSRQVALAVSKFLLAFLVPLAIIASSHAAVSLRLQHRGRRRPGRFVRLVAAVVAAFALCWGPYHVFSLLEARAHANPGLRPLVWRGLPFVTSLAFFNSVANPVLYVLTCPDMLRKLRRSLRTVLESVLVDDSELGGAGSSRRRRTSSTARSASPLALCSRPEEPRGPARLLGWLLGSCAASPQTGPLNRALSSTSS
The settings on record: cited from earlier work.

Data set [5] relates to human Th2 lymphocytes and eosinophils. The conditions noted are these: cited from earlier work.
The test system of data set [6] is patients with atopic eosinophilic asthma. The conditions noted are these: cited from earlier work.
Where [7] appears, read: agglomerates dispersed in water by 10 minutes sonication, single acquisition.

Where “and” joins values, the source holds several entries; their conditions need not be identical. Identical values can stand only once. Like-named read-outs stand apart in the source and are kept apart here.

`Cc1c(Cc2ccc3ccccc3n2)c2cc(F)ccc2n1CC(=O)O` [Example 3, (5-fluoro-2-methyl-3-quinolin-2-yl-methyl-indol-1-yl)acetic acid]: in data set [1] (setting [7]), the “PSD d (0.1)” value was determined as 0.28 μm and the “PSD d (0.5)” value was found to be 0.56 μm. In data set [1], the “PSD d (0.1), Mean result” value was 0.28 μm and the “PSD d (0.5), Mean result” value was found to be 0.56 μm. In addition, the “SSA (m^2/g)” value in data set [2] (listed as Spherical agglomerates of timapiprant of Example 3) was found to be 13.1 m^2/g.
Turning to `Cc1c(Cc2ccc3ccccc3n2)c2cc(F)ccc2n1CC(=O)O` [Example 5, (5-fluoro-2-methyl-3-quinolin-2-yl-methyl-indol-1-yl)acetic acid], the “PSD d (0.5)” value in data set [1] (setting [7]) is reported as 0.64 μm. Also, in data set [1], the “PSD d (0.1), Mean result” value is reported as 0.31 μm and the “PSD d (0.5), Mean result” value was 0.64 μm. Besides, in data set [3] (listed as Spherical agglomerates of timapirpant), the “Flowability (s/100 g)” value is reported as 4 sec s/100 g. Also, the “Flow properties of blend” value in data set [3] (listed as spherical agglomerates of timapiprant) was “good flowability”. Besides, the “SSA (m^2/g)” value in data set [2] (listed as Spherical agglomerates of timapiprant of Example 5) was 10.1 m^2/g.
Regarding `Cc1c(Cc2ccc3ccccc3n2)c2cc(F)ccc2n1CC(=O)O` [Example 7, (5-fluoro-2-methyl-3-quinolin-2-yl-methyl-indol-1-yl)acetic acid], the “SSA (m^2/g)” value in data set [2] (listed as Spherical agglomerates of timapiprant of Example 7) worked out at 15.5 m^2/g.
For `Cc1c(Cc2ccc3ccccc3n2)c2cc(F)ccc2n1CC(=O)O` [Micronized Timapiprant, reference compound], in data set [3], the “Flow properties of blend” value was “very poor flow properties” and the “Flowability (s/100 g)” value is on record as “∞”. Further, the “SSA (m^2/g)” value in data set [2] is 8.0 m^2/g and 7.8 m^2/g. In data set [2] (listed as micronized timapiprant), the “SSA (m^2/g)” value is listed as “less than 8.5 m^2/g”.
With `Cc1c(Cc2ccc3ccccc3n2)c2cc(F)ccc2n1CC(=O)O` [timapiprant], the “CRTH2 antagonist activity” value in data set [4] is “potent, selective, and orally active prostaglandin D2 receptor (CRTH2) antagonist”. In addition, the “Inhibition of mast cell-dependent activation” value in data set [5] was “inhibits mast cell-dependent activation of both human Th2 lymphocytes and eosinophils”. Besides, the “Clinical efficacy” value in data set [6] was “effective in reducing airway inflammation and improving lung function and quality of life”.
